Common to all, as to assay type: in vivo
Experiment [1] concerns larvae of the mustard beetle (Phaedon cochleariae). As to the kind of experiment: Phaedon test (PHAECO spray treatment). The note with it: 168 h, application rate 500 g/ha, after 7 d, read-out: activity (effect in %, beetle larvae killed). On the procedure: Phaedon Test ([…] Spray Treatment) [table] To produce a suitable preparation of active compound, 1 part by weight of active compound is mixed with the stated amounts of solvents and emulsifier, and the concentrate is diluted with emulsifier-containing water to the desired concentration. Discs of chinese cabbage (Brassica pekinensis) are sprayed with an active compound preparation of the desired concentration and, after drying, populated with larvae of the mustard beetle (Phaedon cochleariae). After the desired period of time, the effect in % is determined 100% means that all beetle larvae have been killed; 0% means that none of the beetle larvae have been killed.

For experiment [2], the system named is caterpillars of the army worm (Spodoptera frugiperda). As to the kind of experiment: Spodoptera frugiperda test (SPODFR spray treatment). The note with it: 168 h, application rate 500 g/ha, after 7 d, read-out: activity (effect in %, caterpillars killed). The method, then:
Spodoptera frugiperda Test (SPODFR Spray Treatment) [table] To produce a suitable preparation of active compound, 1 part by weight of active compound is mixed with the stated amounts of solvents and emulsifier, and the concentrate is diluted with emulsifier-containing water to the desired concentration. Discs of maize leaves (Zea mays) are sprayed with an active compound preparation of the desired concentration and, after drying, populated with caterpillars of the army worm (Spodoptera frugiperda). After the desired period of time, the effect in % is determined 100% means that all caterpillars have been killed; 0% means that none of the caterpillars have been killed.

Another experiment has as its system Lucilia cuprina larvae. The experiment is described as follows: Lucilia cuprina test (LUCICU). To be noted: 48 h, application rate 100 ppm, after 2 d, treated horse meat, read-out: activity (kill in %, larvae). The method, then: Lucilia cuprina Test (LUCICU) Solvent: dimethyl sulphoxide To produce a suitable preparation of active compound, 1 part by weight of active compound is mixed with the stated amount of water, and the concentrate is diluted with water to the desired concentration. Containers containing horse meat treated with the active compound preparation of the desired concentration are populated with Lucilia cuprina larvae. After the desired period of time, the kill in % is determined 100% means that all larvae have been killed; 0% means that none of the larvae have been killed.

With `Nc1c(-c2ccc(Cl)cc2)c(C(F)(F)F)nn1-c1ncccn1` [Example 1-6, 4-(4-chlorophenyl)-1-pyrimidin-2-yl-3-(trifluoromethyl)-1H-pyrazole-5-amine], the pest or weed control at 500 g/ha in experiment [1] and in experiment [2] was at least 80% throughout. Besides, the pest or weed control at 100 ppm in the experiment with Lucilia cuprina larvae is at least 80%.

Consider `Nc1c(-c2ccc(Br)cc2)c(C(F)(F)F)nn1-c1ncccn1` [Example 1-9, 4-(4-bromophenyl)-1-pyrimidin-2-yl-3-(trifluoromethyl)-1H-pyrazole-5-amine], for which the pest or weed control at 500 g/ha in experiment [1] and in experiment [2] was at least 80% in each case. For the same molecule, in the experiment with Lucilia cuprina larvae, the pest or weed control at 100 ppm was at least 80%.

Take `Nc1c(-c2ccc(F)c(Cl)c2)c(C(F)(F)F)nn1-c1ncccn1` [Example 1-79, 4-(3-chloro-4-fluorophenyl)-1-pyrimidin-2-y1-3-(trifluoromethyl)-1H-pyrazole-5-amine]: the pest or weed control at 500 g/ha in experiment [1] and in experiment [2] was at least 80% throughout. In the experiment with Lucilia cuprina larvae, the pest or weed control at 100 ppm was at least 80%.

`Nc1c(-c2ccc(Cl)c(Cl)c2)c(C(F)(F)F)nn1-c1ncccn1` [Example 1-80, 4-(3,4-dichlorophenyl)-1-pyrimidin-2-yl-3-(trifluoromethyl)-1H-pyrazole-5-amine]: the pest or weed control at 500 g/ha in experiment [1] and in experiment [2] was at least 80% in each case. Further, in the experiment on Lucilia cuprina larvae, the pest or weed control at 100 ppm is at least 80%.

With `Nc1c(-c2ccc(Cl)c(Br)c2)c(C(F)(F)F)nn1-c1ncccn1` [Example 1-87, 4-(3-bromo-4-chlorophenyl)-2-pyrimidin-2-yl-5-(trifluoromethyl)-2H-pyrazol-3-ylamine], the pest or weed control at 500 g/ha in experiment [1] and in experiment [2] was at least 80% throughout.

For `Nc1c(-c2cc(Cl)cc(C(F)(F)F)c2)c(C(F)(F)F)nn1-c1ncccn1` [Example 3-25, 4-(3-chloro-5-trifluoromethylphenyl)-2-pyrimidin-2-yl-5-trifluoromethyl-2H-pyrazol-3-ylamine], the pest or weed control at 500 g/ha in experiment [1] and in experiment [2] was at least 80% in each case. In the experiment with Lucilia cuprina larvae, the pest or weed control at 100 ppm was at least 80%.

In the case of `COc1ccc(-c2c(C(F)(F)F)nn(-c3ncccn3)c2N)cc1` [Example 5-22], in experiment [1], the pest or weed control at 500 g/ha was at least 80%. Further, the pest or weed control at 100 ppm in the experiment on Lucilia cuprina larvae is at least 80%.

In the case of `Nc1c(-c2ccc(SC(F)(F)F)cc2)c(C(F)(F)F)nn1-c1ncccn1` [Example 5-62], the pest or weed control at 500 g/ha in experiment [1] was at least 80%. For the same molecule, in the experiment with Lucilia cuprina larvae, the pest or weed control at 100 ppm was at least 80%.

Turning to `N#Cc1cccc(-c2c(C(F)(F)F)nn(-c3ncccn3)c2N)c1` [Example 6-70], the pest or weed control at 500 g/ha in experiment [1] and in experiment [2] was at least 80% in each case.

For the molecule `Nc1c(-c2cccc([N+](=O)[O-])c2)c(C(F)(F)F)nn1-c1ncccn1` [Example 6-78], the pest or weed control at 500 g/ha in experiment [1] and in experiment [2] was at least 80% each time.

Regarding `CCNc1c(-c2ccc(Cl)cc2)c(C(F)(F)F)nn1-c1ncccn1` [Example 12-7, 4-(4-chlorophenyl)-N-ethyl-l-pyrimidin-2-yl-3-(trifluoromethyl)-1H-pyrazole-5-amine], the pest or weed control at 500 g/ha in experiment [1] and in experiment [2] was at least 80% each time. Also, the pest or weed control at 100 ppm in the experiment with Lucilia cuprina larvae was at least 80%.

Regarding `FC(F)(F)c1nn(-c2ncccn2)c(Cl)c1-c1ccc(Cl)cc1` [Example 14-7], the pest or weed control at 500 g/ha in experiment [1] and in experiment [2] was at least 80% each time. Moreover, the pest or weed control at 100 ppm with Lucilia cuprina larvae is at least 80%.

`CC(=O)N(C(C)=O)c1c(-c2ccc(Cl)c(Cl)c2)c(C(F)(F)F)nn1-c1ncccn1` [Example 29-37, N,N-diacetyl-4-(3,4-dichlorophenyl)-1-pyrimidin-2-yl-3-(trifluoromethyl)-1H-pyrazole-5-amine]: the pest or weed control at 500 g/ha in experiment [1] and in experiment [2] was at least 80% each time.

The values are drawn from US20100144672A1, “PYRIMIDINYL PYRAZOLES AS INSECTICIDES AND PARASITICIDE ACTIVE AGENTS” (BAYER CROPSCIENCE AG, priority 2006, published 2010).
